Data on 15 compounds can be found in patent US11453697B1, “Cyclic di-nucleotide compounds as sting agonists” (Merck Sharp & Dohme Corp., priority 2015, dated 2022).

The subject of assay [1] is IFN-β secretion in THP1 cells. As to the kind of experiment: IFN-β secretion in THP1 cell culture (5 h). It counts as cell-based, human. The gist of the method: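 THP1 cells incubated with compound for 5 h at 37 °C, 5% CO2, and secreted IFN-β in supernatant quantified by AlphaLISA. Percent effect normalised to 30 uM cGAMP positive control and 0.3% DMSO. EC50 from 4-parameter fit.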

Another assay concerns the target full-length HAQ STING (Homo sapiens (Human), UniProt Q86WV6, G230A/H232R/R293Q/R71H). As to the kind of experiment: 3H-cGAMP filtration binding assay (HAQ STING). Particulars: competition with tritiated cGAMP, HAQ STING membrane; read-out: EC50 (nM), 3H-cGAMP filtration binding assay for HAQ STING. The gist of the method: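 Competition binding of compounds against 8 nM [3H]cGAMP working stock on Hi-Five cell membranes overexpressing full-length HAQ STING; compound and membrane preincubated 60 min at RT before ligand addition. Bound radioactivity read by filtration and scintillation counting; percent activity normalized to controls, EC50 from 4-parameter fit.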

The mark [2] stands for this setting: IFN-β secretion in THP1 cell culture, 5 h, compound at 30 μM, percent activation relative to 2′3′-cGAMP.

The structures appear in SMILES notation. Like-named read-outs stand apart in the source and are kept apart here.

full-length HAQ STING, sequence (Q86WV6 other isoform, or with tags, fused parts or gaps, stated change not applied): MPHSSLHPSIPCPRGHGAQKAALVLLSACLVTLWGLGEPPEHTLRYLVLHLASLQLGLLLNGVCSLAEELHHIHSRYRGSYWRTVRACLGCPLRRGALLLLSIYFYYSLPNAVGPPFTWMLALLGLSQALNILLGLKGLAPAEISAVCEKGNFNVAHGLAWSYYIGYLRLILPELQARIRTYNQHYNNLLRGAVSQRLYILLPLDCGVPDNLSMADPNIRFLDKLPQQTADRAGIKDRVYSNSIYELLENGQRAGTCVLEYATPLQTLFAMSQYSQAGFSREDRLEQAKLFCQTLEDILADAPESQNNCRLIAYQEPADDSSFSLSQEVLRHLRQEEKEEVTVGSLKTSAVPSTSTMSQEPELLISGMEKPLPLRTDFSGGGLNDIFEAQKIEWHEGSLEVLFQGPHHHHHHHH

Turning to `Nc1nc2c(ncn2[C@@H]2O[C@@H]3COP(=O)(O)O[C@H]4[C@@H](F)[C@H](n5cnc6c(=O)[nH]cnc65)O[C@@H]4COP(=O)(O)O[C@@H]2[C@@H]3F)c(=O)[nH]1` [Example 314, 2-amino-9-[(5R,7R,8S,12aR,14R,15R,15aR,16R)-15,16-difluoro-2,10-dihydroxy-2,10-dioxido-14-(6-oxo-1,6-dihydro-9H-purin-9-yl)octahydro-12H-5,8-methanofuro [3,2-l][1,3,6,9,11,2,10]pentaoxadiphosphacyclotetradecin-7-yl]-1,9-dihydro-6H-purin-6-one], the “% Effect at 30 μM relative to 2′3′-cGAMP” value in assay [1] (setting [2]) stood at 143%. Further, the EC50 on full-length HAQ STING is below 1 nM.

Turning to `Nc1nc2c(ncn2[C@@H]2O[C@@H]3COP(=O)(O)O[C@H]4[C@H](F)[C@H](n5cnc6c(=O)[nH]cnc65)O[C@@H]4COP(=O)(O)O[C@@H]2C3)c(=O)[nH]1` [Example 312, 2-amino-9-[(5S,7R,8R,12aR,14R,15S,15aR)-15-fluoro-2,10-dihydroxy-2,10-dioxido-14-(6-oxo-1,6-dihydro-9H-purin-9-yl)octahydro-12H-5,8-methanofuro[3,2-l] [1,3,6,9,11,2,10]pentaoxadiphosphacyclo-tetradecin-7-yl]-1,9-dihydro-6H-purin-6-one], the “% Effect at 30 μM relative to 2′3′-cGAMP” value in assay [1] (setting [2]) is given as 90%. For the same compound, the EC50 on full-length HAQ STING is 122 nM.

As for `Nc1nc2c(ncn2[C@@H]2O[C@@H]3COP(=O)(O)OC4C(O)[C@H](c5cnn6c(=O)[nH]cnc56)O[C@@H]4COP(=O)(O)OC2C3O)c(=O)[nH]1` (stereo in doubt) [Example 321, 8-[(5R,7R,8R,12aR,14S,15S,15aS,16R)-7-(2-amino-6-oxo-1,6-dihydro-9H-purin-9-yl)-2,10,15,16-tetrahydroxy-2,10-dioxidooctahydro-12H-5,8-methanofuro[3,2-l][1,3,6,9,11,2,10]pentaoxadiphosphacyclotetradecin-14-yl]pyrazolo[1,5-a][1,3,5]triazin-4(3H)-one], the “% Effect at 30 μM relative to 2′3′-cGAMP” value in assay [1] (setting [2]) is 36%. In addition, at full-length HAQ STING, the EC50 was found to be 112 nM.

In the case of `CCc1ncnc2c1ncn2[C@@H]1O[C@@H]2COP(=O)(O)O[C@@H]3[C@H](O)[C@@H](COP(=O)(O)O[C@H]2[C@H]1O)O[C@H]3n1cnc2c(=O)[nH]c(N)nc21` [Example 56, 2-amino-9-[(5R,7R,8R,12aR,14R,15R,15aS,16R)-14-(6-ethyl-9H-purin-9-yl)-2,10,15,16-tetrahydroxy-2,10-dioxidooctahydro-12H-5,8-methanofuro[3,2-l][1,3,6,9,11,2,10]pentaoxadiphosphacyclotetradecin-7-yl]-1,9-dihydro-6H-purin-6-one], the “% Effect at 30 μM relative to 2′3′-cGAMP” value in assay [1] (setting [2]) amounted to 64%. At full-length HAQ STING, the EC50 came to 89.4 nM.

With `Nc1nc2c(ncn2[C@@H]2O[C@@H]3COP(=O)(O)O[C@H]4[C@@H](O)[C@H](n5cnc6c(N)ncnc65)O[C@@H]4COP(=O)(O)O[C@@H]2[C@@H]3N)c(=O)[nH]1` [Example 75, 2-Amino-9-[(5S,7R,8R,12aR,14R,15R,15aS,16R)-16-amino-14-(6-amino-9H-purin-9-yl)-2,10,15-trihydroxy-2,10-dioxidooctahydro-12H-5,8-methanofuro[3,2-l][1,3,6,9,11,2,10]pentaoxadiphosphacyclotetradecin-7-yl]-1,9-dihydro-6H-purin-6-one], the “% Effect at 30 μM relative to 2′3′-cGAMP” value in assay [1] (setting [2]) is reported as 96%. In addition, at full-length HAQ STING, the EC50 was found to be 2.6 nM.

For `Nc1ncnc2c1ncn2[C@@H]1O[C@@H]2COP(=O)(O)O[C@H]3C[C@H](n4cnc5c(=O)[nH]cnc54)O[C@@H]3COP(=O)(O)O[C@@H]1[C@@H]2O` [Example 291, 9-[(5R,7R,8R,12aR,14R,15aS,16R)-7-(6-amino-9H-purin-9-yl)-2,10,16-trihydroxy-2,10-dioxidooctahydro-12H-5,8-methanofuro[3,2-l][1,3,6,9,11,2,10]pentaoxadiphosphacyclotetradecin-14-yl]-1,9-dihydro-6H-purin-6-one], the “% Effect at 30 μM relative to 2′3′-cGAMP” value in assay [1] (setting [2]) is recorded as 98%. For the same compound, the EC50 on full-length HAQ STING is 64.7 nM.

`Nc1nc2c(ncn2[C@@H]2O[C@@H]3COP(=O)(O)O[C@H]4[C@@H](O)[C@H](c5cnn6c(N)ncnc56)O[C@@H]4COP(=O)(O)O[C@@H]2[C@@H]3O)c(=O)[nH]1` [Example 54, 2-amino-9-[(5R,7R,8R,12aR,14S,15S,15aS,16R)-14-(4-aminopyrazolo[1,5-a][1,3,5]triazin-8-yl)-2,10,15,16-tetrahydroxy-2,10-dioxidooctahydro-12H-5,8-methanofuro[3,2-l][1,3,6,9,11,2,10]pentaoxadiphosphacyclotetradecin-7-yl]-1,9-dihydro-6H-purin-6-one]: the “% Effect at 30 μM relative to 2′3′-cGAMP” value in assay [1] is recorded as 83%. Also, the EC50 on full-length HAQ STING was below 1 nM.

As for `Nc1nc2c(ncn2[C@@H]2O[C@@H]3COP(=O)(S)O[C@H]4[C@H](F)[C@H](n5cnc6c(=O)[nH]cnc65)O[C@@H]4COP(=O)(S)O[C@@H]2C3)c(=O)[nH]1` (single isomer, unassigned) [Example 317], the “% Effect at 30 μM relative to 2′3′-cGAMP” value in assay [1] (setting [2]) is recorded as 107%. For the same compound, the EC50 on full-length HAQ STING was below 1 nM.

In the case of `Nc1ncnc2c1ncn2[C@@H]1O[C@@H]2COP(=O)(O)O[C@@H]3[C@H](O)[C@@H](COP(=O)(O)O[C@H]2[C@H]1O)O[C@H]3n1cnc2c(=O)[nH]ccc21` [Example 58, 1-[(5R,7R,8R,12aR,14R,15R,15aS,16R)-14-(6-amino-9H-purin-9-yl)-2,10,15,16-tetrahydroxy-2,10-dioxidooctahydro-12H-5,8-methanofuro[3,2-l][1,3,6,9,11,2,10]pentaoxadiphosphacyclotetradecin-7-yl]-1,5-dihydro-4H-imidazo[4,5-c]pyridin-4-one], the “% Effect at 30 μM relative to 2′3′-cGAMP” value in assay [1] (setting [2]) is listed as 92%. Moreover, the EC50 at full-length HAQ STING stood at 3.1 nM.

With `Nc1nc2c(ncn2[C@@H]2S[C@@H]3COP(=O)(O)O[C@H]4[C@@H](O)[C@H](n5cnc6c(=O)[nH]cnc65)O[C@@H]4COP(=O)(O)O[C@@H]2[C@@H]3O)c(=O)[nH]1` [Example 319, 2-amino-9-[(5R,7R,8R,12aR,14R,15R,15aS,16S)-2,10,15,16-tetrahydroxy-2,10-dioxido-14-(6-oxo-1,6-dihydro-9H-purin-9-yl)octahydro-12H-5,8-methanofuro[3,2-l][1,3,6,9,11,6,2,10]tetraoxathiadiphosphacyclotetradecin-7-yl]-1,9-dihydro-6H-purin-6-one], the “% Effect at 30 μM relative to 2′3′-cGAMP” value in assay [1] (setting [2]) is recorded as 143%. Besides, at full-length HAQ STING, the EC50 stood at 7.3 nM.

Consider `Nc1nc2c(ncn2[C@@H]2S[C@@H]3COP(=O)(O)OC4C(O)[C@H](n5cnc6c(N)ncnc65)O[C@@H]4COP(=O)(O)OC2C3O)c(=O)[nH]1` (stereo in doubt) [Example 11, (5R,7R,8R,12aR,14R,15R,15aS,16S)-7-(2-amino-6-oxo-1,6-dihydro-9H-purin-9-yl)-14-(6-amino-9H-purin-9-yl)-15,16-dihydroxyoctahydro-12H-5,8-methanofuro[3,2-l][1,3,9,11,6,2,10] tetraoxathiadiphosphacyclotetradecine-2,10-diolate 2,10-dioxide], for which the “% Effect at 30 μM relative to 2′3′-cGAMP” value in assay [1] (setting [2]) stood at 169%. Also, the EC50 at full-length HAQ STING was found to be 1.2 nM.

As to `Nc1ncnc2c1ncn2[C@@H]1O[C@@H]2COP(=O)(O)O[C@@H]3[C@H](O)[C@@H](COP(=O)(O)O[C@H]2[C@H]1O)O[C@H]3c1cnc2c(=O)[nH]cnn12` [Example 68, 7-[(5R,7S,8R,12aR,14R,15R,15aS,16R)-14-(6-amino-9H-purin-9-yl)-2,10,15,16-tetrahydroxy-2,10-dioxidooctahydro-12H-5,8-methanofuro [3,2-l][1,3,6,9,11,2,10]pentaoxadiphosphacyclotetradecin-7-yl]imidazo[2,1-f][1,2,4]triazin-4(3H)-one], in assay [1] (setting [2]), the “% Effect at 30 μM relative to 2′3′-cGAMP” value is on record as 72%. Further, the EC50 on full-length HAQ STING came to 63.8 nM.

Turning to `Nc1nc2c(ncn2[C@@H]2O[C@@]34CO[C@H]3[C@H]2OP(=O)(O)OC[C@H]2O[C@@H](n3cnc5c(=O)[nH]cnc53)[C@H](O)[C@@H]2OP(=O)(O)OC4)c(=O)[nH]1` [Example 316, 2-amino-9-[(2aR,6aS,7R,8R,9aR,14R,14aS,15R)-5,7,12-trihydroxy-5,12-dioxido-8-(6-oxo-1,6-dihydro-9H-purin-9-yl)hexahydro-6aH,2a,14-(epoxymethano)furo [3,2-d]oxeto[2,3-k][1,3,7,9,2,8]tetraoxadiphosphacyclotridecin-15(2H,3H)-yl]-1,9-dihydro-6H-purin-6-one], the “% Effect at 30 μM relative to 2′3′-cGAMP” value in assay [1] (setting [2]) worked out at 12%. Besides, the EC50 on full-length HAQ STING was 2320 nM.

In the case of `Nc1ncnc2c1ncn2[C@@H]1O[C@@H]2COP(=O)(O)O[C@@H]3[C@H](O)[C@@H](COP(=O)(O)O[C@H]2[C@H]1O)O[C@H]3c1n[nH]c2c(=O)[nH]cnc12` [Example 74, 3-[(5R,7S,8R,12aR,14R,15R,15aS,16R)-14-(6-amino-9H-purin-9-yl)-2,10,15,16-tetrahydroxy-2,10-dioxidooctahydro-12H-5,8-methanofuro[3,2-l][1,3,6,9,11,2,10]pentaoxadiphosphacyclotetradecin-7-yl]-1,6-dihydro-7H-pyrazolo[4,3-d]pyrimidin-7-one], the “% Effect at 30 μM relative to 2′3′-cGAMP” value in assay [1] (setting [2]) is recorded as 57%. For the same compound, the EC50 at full-length HAQ STING was found to be 5.8 nM.

Take `Nc1ncnc2c1ncn2[C@@H]1O[C@@H]2COP(=O)(O)O[C@H]3[C@@H](F)[C@H](n4cnc5c(=O)[nH]cnc54)O[C@@H]3COP(=O)(O)O[C@@H]1[C@@H]2O` [Example 292, 9-[(5R,7R,8R,12aR,14R,15R,15aR,16R)-7-(6-amino-9H-purin-9-yl)-15-fluoro-2,10,16-trihydroxy-2,10-dioxidooctahydro-12H-5,8-methanofuro[3,2-l][1,3,6,9,11,2,10]pentaoxadiphosphacyclotetradecin-14-yl]-1,9-dihydro-6H-purin-6-one]: the “% Effect at 30 μM relative to 2′3′-cGAMP” value in assay [1] (setting [2]) turned out to be 114%. Also, on full-length HAQ STING, the EC50 came out at 2.6 nM.
